From ChEMBL document CHEMBL4118125, “MK-8325: A silyl proline-containing NS5A inhibitor with pan-genotype activity for treatment of HCV” (Bioorg Med Chem Lett, 2018)
One block for each compound: values may come before it. Calls of active or inactive are those of the source. The calls are words filed in the database; no cut-off is given here.

What was measured:
[1] = Clearance in Sprague-Dawley rat at 2.5 mg/kg, iv by LC-MS/MS method; format: ADME, organism-based; settings: in vivo
[2] = Effective half life in Sprague-Dawley rat at 2.5 mg/kg, iv by LC-MS/MS method; format: ADME, organism-based; settings: in vivo, read-out: t1/2eff (converted)
[3] = Oral bioavailability in Sprague-Dawley rat at 5 mg/kg by LC-MS/MS method; format: ADME, organism-based; settings: in vivo
[4] = Clearance in beagle dog at 1 mg/kg, iv by LC-MS/MS method; format: ADME, organism-based, Canis lupus familiaris; settings: in vivo
[5] = Effective half life in beagle dog at 1 mg/kg, iv by LC-MS/MS method; format: ADME, organism-based, Canis lupus familiaris; settings: in vivo, read-out: t1/2eff (converted)
Canis familiaris [6] = assay: AUC in beagle dog at 2 mg/kg, po by LC-MS/MS method; format: ADME, organism-based, Canis lupus familiaris; settings: in vivo
[7] = Oral bioavailability in beagle dog at 2 mg/kg by LC-MS/MS method; format: ADME, organism-based, Canis lupus familiaris; settings: in vivo
[8] = Clearance in cynomolgus monkey at 1 mg/kg, iv by LC-MS/MS method; format: ADME, organism-based, Macaca fascicularis; settings: in vivo
[9] = Effective half life in cynomolgus monkey at 1 mg/kg, iv by LC-MS/MS method; format: ADME, organism-based, Macaca fascicularis; settings: in vivo, read-out: t1/2eff (converted)
Cynomolgus monkey = assay: AUC in cynomolgus monkey at 2 mg/kg, po by LC-MS/MS method; format: ADME, organism-based, Macaca fascicularis; settings: in vivo
[10] = Oral bioavailability in cynomolgus monkey at 2 mg/kg by LC-MS/MS method; format: ADME, organism-based, Macaca fascicularis; settings: in vivo
Cytochrome P450 3A4 = Cytochrome P450 3A4 (Homo sapiens, UniProt P08684); assay: Inhibition of CYP3A4 (unknown origin); format: ADME
Chain of Cytochrome P450 3A4 (P08684 whole entry): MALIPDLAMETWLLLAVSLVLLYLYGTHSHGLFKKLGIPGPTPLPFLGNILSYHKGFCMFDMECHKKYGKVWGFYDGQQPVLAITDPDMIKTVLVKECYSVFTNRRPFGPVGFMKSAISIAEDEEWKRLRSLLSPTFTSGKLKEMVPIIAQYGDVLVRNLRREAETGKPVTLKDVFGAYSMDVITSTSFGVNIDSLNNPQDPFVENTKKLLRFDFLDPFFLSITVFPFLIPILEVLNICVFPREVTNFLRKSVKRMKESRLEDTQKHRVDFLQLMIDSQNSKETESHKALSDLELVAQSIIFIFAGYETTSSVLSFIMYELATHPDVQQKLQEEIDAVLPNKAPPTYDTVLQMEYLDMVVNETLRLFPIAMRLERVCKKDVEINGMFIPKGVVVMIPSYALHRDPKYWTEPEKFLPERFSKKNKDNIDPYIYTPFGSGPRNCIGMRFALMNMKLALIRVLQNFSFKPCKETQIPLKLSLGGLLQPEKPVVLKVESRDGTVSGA

Cytochrome P450 2C9 = Cytochrome P450 2C9 (Homo sapiens, UniProt P11712); assay: Inhibition of CYP2C9 (unknown origin); format: ADME
Chain of Cytochrome P450 2C9 (P11712 whole entry): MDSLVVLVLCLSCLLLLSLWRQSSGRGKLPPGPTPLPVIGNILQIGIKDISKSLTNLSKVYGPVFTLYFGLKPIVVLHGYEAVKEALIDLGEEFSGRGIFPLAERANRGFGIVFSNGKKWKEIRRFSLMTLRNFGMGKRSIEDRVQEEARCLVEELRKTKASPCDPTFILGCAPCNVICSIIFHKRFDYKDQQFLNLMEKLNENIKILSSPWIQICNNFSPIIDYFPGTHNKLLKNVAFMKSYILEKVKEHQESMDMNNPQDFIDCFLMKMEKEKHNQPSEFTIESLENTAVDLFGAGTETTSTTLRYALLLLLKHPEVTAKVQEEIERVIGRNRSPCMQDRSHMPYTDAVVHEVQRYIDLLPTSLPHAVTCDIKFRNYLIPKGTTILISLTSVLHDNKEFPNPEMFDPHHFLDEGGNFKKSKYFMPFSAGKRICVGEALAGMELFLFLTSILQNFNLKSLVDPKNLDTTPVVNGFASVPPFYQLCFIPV

Cytochrome P450 2D6 = Cytochrome P450 2D6 (Homo sapiens, UniProt P10635); assay: Inhibition of CYP2D6 (unknown origin); format: ADME
Chain of Cytochrome P450 2D6 (P10635 whole entry): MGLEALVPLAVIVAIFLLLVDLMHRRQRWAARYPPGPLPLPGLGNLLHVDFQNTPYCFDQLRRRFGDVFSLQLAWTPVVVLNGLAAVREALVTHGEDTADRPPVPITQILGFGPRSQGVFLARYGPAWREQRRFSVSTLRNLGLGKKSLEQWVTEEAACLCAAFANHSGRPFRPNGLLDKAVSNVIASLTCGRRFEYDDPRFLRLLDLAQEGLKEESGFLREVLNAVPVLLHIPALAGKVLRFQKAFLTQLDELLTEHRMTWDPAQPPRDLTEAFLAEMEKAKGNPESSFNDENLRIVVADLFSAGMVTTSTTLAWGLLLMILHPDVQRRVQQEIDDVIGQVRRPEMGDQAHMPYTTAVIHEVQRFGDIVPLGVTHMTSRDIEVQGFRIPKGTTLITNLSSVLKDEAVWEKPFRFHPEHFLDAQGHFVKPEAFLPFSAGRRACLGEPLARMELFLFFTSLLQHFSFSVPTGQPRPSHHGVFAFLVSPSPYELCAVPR

[11] = molecular target: T1, Nuclear receptor subfamily 1 group I member 2 (Homo sapiens, UniProt O75469); assay: Activation of PXR in human hepatocytes assessed as induction of […] mRNA expression; format: ADME, cell-based
T1 sequence (O75469 whole entry): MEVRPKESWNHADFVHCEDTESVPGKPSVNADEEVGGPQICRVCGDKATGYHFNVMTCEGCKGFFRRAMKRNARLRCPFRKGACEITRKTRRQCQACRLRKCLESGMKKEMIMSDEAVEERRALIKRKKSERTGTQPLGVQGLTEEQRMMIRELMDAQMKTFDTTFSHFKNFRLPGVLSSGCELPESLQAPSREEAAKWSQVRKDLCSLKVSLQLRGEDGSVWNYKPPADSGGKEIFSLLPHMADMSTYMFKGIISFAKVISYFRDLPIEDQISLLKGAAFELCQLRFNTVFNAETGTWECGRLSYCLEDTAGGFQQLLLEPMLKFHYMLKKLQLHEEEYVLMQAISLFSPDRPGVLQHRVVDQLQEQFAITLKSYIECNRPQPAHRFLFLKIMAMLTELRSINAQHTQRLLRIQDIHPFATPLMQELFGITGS

[12] = Drug level in Sprague-Dawley rat at 5 mg/kg, po after 24 hrs by LC-MS/MS method; format: ADME, organism-based; settings: in vivo, read-out: Drug uptake
[13] = Drug level in beagle dog at 2 mg/kg, po after 24 hrs by LC-MS/MS method; format: ADME, organism-based, Canis lupus familiaris; settings: in vivo, read-out: Drug uptake
[14] = Drug level in cynomolgus monkey at 2 mg/kg, po after 24 hrs by LC-MS/MS method; format: ADME, organism-based, Macaca fascicularis; settings: in vivo, read-out: Drug uptake
[15] = molecular target: T2, PXR (Nuclear receptor subfamily 1 group I member 2) (Homo sapiens, UniProt O75469); assay: Activation of PXR (unknown origin) relative to rifampicin; format: ADME; settings: read-out: FC
T2 sequence (O75469 whole entry): T1 sequence (O75469 whole entry)

Rattus norvegicus = assay: AUC in Sprague-Dawley rat at 2 mg/kg, po by LC-MS/MS method; format: ADME, organism-based; settings: in vivo
[16] = Drug level in Sprague-Dawley rat at 2 mg/kg, po after 24 hrs by LC-MS/MS method; format: ADME, organism-based; settings: in vivo, read-out: Drug uptake
[17] = Oral bioavailability in Sprague-Dawley rat at 2 mg/kg by LC-MS/MS method; format: ADME, organism-based; settings: in vivo
Canis familiaris [18] = assay: AUC in beagle dog at 1 mg/kg, po by LC-MS/MS method; format: ADME, organism-based, Canis lupus familiaris; settings: in vivo
[19] = Drug level in beagle dog at 1 mg/kg, po after 24 hrs by LC-MS/MS method; format: ADME, organism-based, Canis lupus familiaris; settings: in vivo, read-out: Drug uptake
[20] = Oral bioavailability in beagle dog at 1 mg/kg by LC-MS/MS method; format: ADME, organism-based, Canis lupus familiaris; settings: in vivo
[21] = molecular target: T1, Nuclear receptor subfamily 1 group I member 2; assay: Activation of PXR (unknown origin); format: ADME
[22] = Cytotoxicity in human HuH7 replicon cells by MTS assay; format: cell-based, Huh-7
Homo sapiens = species on record: Homo sapiens; assay: Inhibition of IKs channel (unknown origin) at 30 uM

SMILES: COC(=O)N[C@H](C(=O)N1C[Si](C)(C)C[C@H]1c1ncc(-c2ccc(-c3ccc4c(ccc5nc([C@@H]6CC(F)(F)CN6C(=O)[C@@H](NC(=O)OC)C(C)C)[nH]c54)c3)cc2)[nH]1)C(C)C
clearance [1]: 7 mL/min/kg | half-life [2]: 10 h | bioavailability [3]: 64% | clearance [4]: 0.7 mL/min/kg | half-life [5]: 30 h | AUC (Canis familiaris [6]): 32 uM.hr/ml | bioavailability [7]: 47% | clearance [8]: 0.7 mL/min/kg | half-life [9]: 15 h | AUC (Cynomolgus monkey): 26 uM.hr/ml | bioavailability [10]: 45% | INH (Cytochrome P450 3A4): > 20 µM | INH (Cytochrome P450 2C9): > 20 µM | INH (Cytochrome P450 2D6): > 20 µM | Activity [11]: 0.3 µM | concentration at 24 h [12]: 94 nM | concentration at 24 h [13]: 0.4 nM | concentration at 24 h [14]: 273 nM | fold induction [15]: 0.31

clearance [1]: 9.3 mL/min/kg | half-life [2]: 2 h | clearance [4]: 6.4 mL/min/kg | half-life [5]: 4.7 h | clearance [8]: 9.1 mL/min/kg | half-life [9]: 3 h | AUC (Rattus norvegicus): 1.7 uM.hr/ml | concentration at 24 h [16]: 4 nM | bioavailability [17]: 38% | AUC (Canis familiaris [18]): 1.1 uM.hr/ml | concentration at 24 h [19]: 4 nM | bioavailability [20]: 26% | INH (Cytochrome P450 3A4): > 20 µM | INH (Cytochrome P450 2C9): > 20 µM | INH (Cytochrome P450 2D6): > 20 µM | Activity [21]: 3 µM | inhibition (Homo sapiens): inactive
SMILES: COC(=O)N[C@H](C(=O)N1CCC[C@H]1c1ncc(-c2ccc(-c3cc4cc(-c5cnc([C@@H]6CCCN6C(=O)[C@@H](NC(=O)OC)C(C)C)[nH]5)ccc4o3)cc2)[nH]1)C(C)C
CC50 [22]: 7 µM
